Values quoted from earlier work, collected in patent publication US20130202650A1, “TOPICAL COMPOSITION COMPRISING A COMBINATION OF AT LEAST TWO PENETRATION ENHANCING AGENTS” (Moberg Derma AB, priority 2008, published 2013).
Counter-ions that a name gives are not always drawn.

Conditions: tBtOH-IPM (2:8) vehicle; mouse

BZ flux from the mesylate salt: 2020 µg/cm²/h
BZ flux, fold greater than from water: 100 fold
BZ flux, fold greater than the individual neat solvents: 44-540 fold
SMILES: CN1[C@@H]2CC[C@H]1C[C@@H](OC(c1ccccc1)c1ccccc1)C2 [BZ mesylate, benztropine]
